The values below are quoted from earlier work in US20140256822A1, “TRANSMUCOSAL DRUG DELIVERY SYSTEM” (priority 2013, published 2014).

The conditions of the data set: at a pH of 6.8.

As to `CN1CCCC1c1cccnc1` (stereo not shown) [nicotine], the “nicotine in the free base form” value is recorded as “about 10%”.
